# Test results published in US9480695B2, “Methods for inducing orexin neurons and agent for treating narcolepsy or eating disorder” (THE UNIVERSITY OF TOKYO, priority 2011, dated 2016).
# Assays:
# Type in all cases: cell-based
# [1] = tested on: Mouse ES cells (J1 strain); test: Hcrt expression with ManNAc plus Sirt inhibitor or Ogt inhibitor, neural differentiation from mouse ES cell, RT-PCR; settings: ManNAc 1.0 mM from 0th day, BADGP 1 mM or 5 mM on 7th day, collected 10th day; FIG. 9
# Procedure: According to the same manner as that described in Example 1, mouse ES cells (J1 strain) were cultured for 10 days for differentiation induction into a nerve cell. A protocol of inducing differentiation into a nerve cell is shown in the upper column of FIG. 11. From the initiation of differentiation culturing (0th day), ManNAc was added to a neural differentiation medium so that the concentration became 1.0 mM, and the medium was exchanged on 4th and 7th days of differentiation culturing. In addition, from 4th day of differentiation culturing, 5 nM recombinant human BMP4 (Wako) was added. On 7th day of differentiation culturing, EX-527 (SIGMA-ALDRICH) was added to a neural differentiation medium so that the concentration became 50 nM or BADGP (SIGMA-ALDRICH) was added to a neural differentiation medium so that the concentration became 1 or 5 mM, and on 10th day of differentiation culturing, cells were collected and subjected to RT-PCR. The conditions of RT-PCR are the same as those of Example 1.
# [2] = tested on: endbrain-derived neurosphere (NSph); test: Orexin inducing action on mouse fetus-derived neurosphere (NSph), RT-PCR; settings: 1 mM from initiation of NSph culture, 6 days plus 10 days differentiation; FIG. 7
# Procedure: A culture and differentiation induction experiment was performed based on the method of Ciccolini and Svendsen (1998, J Neurosci. 18(19): 7869-80). An endbrain was removed from a C57BL/6N mouse fetus having an embryonic age of 14.5 days in ice-cold PBS/0.6% glucose. Dispersion into a single cell was performed by pipetting, and cells were suspended in a medium for NSph [DMEM/F12 (Wako) containing 1×B27 (Invitrogen), 20 ng/ml EGF (Sigma), 20 ng/ml FGF-basic (PEPROTECH), 5 μg/ml heparin (Sigma)] and seeded on a 10 cm petri dish in an amount of 2×10^6 cells/10 ml. Half the amount of the medium was exchanged 3 days after initiation of culturing, and culturing was performed for another 3 days (total 6 days).
# NSph was recovered 6 days after initiation of culturing, and cells were dispersed by pipetting in PBS/0.6% glucose. Cells were collected by centrifugation and suspended in a medium for differentiation induction (not containing EGF, FGF-basic and heparin of a medium for NSph). Cells were seeded in an amount of 4.5×10^5 cells/7.5 ml on a 6 cm dish which had been coated with poly-L-lysine/laminin (both Sigma) in advance, and differentiation was induced. Half the amount of the medium was exchanged 5 days after initiation of differentiation induction, and culturing was performed for another 5 days (total 10 days). […]
# [3] = tested on: human-derived pluripotent stem cell; test: Hcrt expression in human-derived pluripotent stem cell (similar effect to Experiment 1); settings: stated as similar to Experiment 1
# [4] = tested on: Mouse ES cells (J1 strain); test: Induction of Hcrt expression in neural differentiation from mouse ES cells, SDIA differentiation culture system, RT-PCR
# Procedure: Mouse ES cells (J1 strain) which had been maintained in a medium for an ES cell [DMEM (Wako) added with 15% FBS (Biowest), 1 mM sodium pyruvate (Invitrogen), […] (Invitrogen), 2 mM L-glutamine (Invitrogen), 1 mM non essential amino acid (Invitrogen), 50 U/ml penicillin/50 μg/ml streptomycin (Invitrogen), 2000 U leukemia inhibitory factor (Chemicon, CA)] were seeded on a 10 cm culture dish so that the cell count became 1×10^5 cells per culture dish on which PA6 stromal cells had been seeded in advance, and differentiation induction was performed in a medium for neural differentiation [Glasgow MEM (Invitrogen) added with 10% KSR (Invitrogen), […] (Invitrogen), 1 mM non essential amino acid (Invitrogen), 50 U/ml penicillin/50 μg/ml streptomycin (Invitrogen)] for 10 days. On 4th and 7th days of differentiation culturing, the medium was exchanged. In addition, from 4th day of differentiation culturing, 5 nM recombinant human BMP4 (Wako) was added (FIG. 1). On 10th day of differentiation culturing, cells were collected and pelletized by a centrifugation operation to remove the culture medium. Thereafter, the pellets were immediately frozen in liquid nitrogen and stored at −80° C. until use.
# The total RNA was extracted from the collected cells using RNeasy plus Mini Kit (QIAGEN). Then, a reverse transcription reaction was performed in a reaction liquid containing 1 μg of the total RNA, and Oligo (dT) using SuperScript III First Strand Synthesis System (Invitrogen) to synthesize a cDNA.
# A PCR reaction was performed on a 10 μl scale, 1 U of LA-Taq DNA Polymerase (Takara) was added to 0.5 μl of a cDNA, 5 μl of 2×GC Buffer I, each 200 μM of dNTP, 1.5 mM MgCl2, and each primer having a final concentration of 0.2 μM, thermal denaturation was performed at 95° C. for 3 minutes, and the reaction was performed under the condition of (30 seconds at 95° C., 30 seconds at 55° C., and 30 seconds at 72° C.)×35 cycles (20 cycles in the case of Actb). The primers used are shown below.
# Each PCR product was electrophoresed on a 2% agarose gel, stained with ethidium bromide, and a band was observed by UV irradiation.
smiles,measurement,setting,value
"CC(=O)N[C@@H]1C(O)O[C@H](CO)[C@@H](O)[C@@H]1O (stereo partly drawn) [ManNAc, N-acetyl-D-mannosamine]",Expression of an orexin gene (Hcrt),[1],expression of Hcrt which had been recognized in a ManNAc-added section
same,Expression of Hcrt,[2],detected only in a 1.0 mM ManNAc-added culture
same,Expression of Hcrt in a human-derived pluripotent stem cell,[3],a similar effect was obtained
same,Level of Hcrt expression by addition period,"[4]; 1.0 mM ManNAc, added on 4th to 10th, 7th to 10th and 0th to 10th days versus 0th to 4th and 0th to 7th days",high expression was observed in the section in which ManNAc was added to a medium on and after 7th day of differentiation
same,Expression of Hcrt with changed time of addition,"[4]; 1.0 mM, addition time varied, FIG. 3",expression of Hcrt was observed only in a ManNAc-added section at any addition time
same,Expression of an orexin gene (Hcrt),"[4]; added from initiation of differentiation culturing at 0.2 and 1.0 mM, cells collected on 10th day, FIG. 2",expression of Hcrt was recognized only in a ManNAc-added section
